# From patent publication US8501995B2, “β-phenylethylidenehydrazine derivatives” (The Governors of the University of Alberta, priority 2009, dated 2013)
# Read-outs that look alike come from different tables or passages of the source.
# Key:
# MAO-B [1] = target: T1, MAO-B (Rattus norvegicus, UniProt P19643); assay: MAO-B inhibition in vitro in control rat brain homogenate (14C-β-phenylethylamine substrate); format: biochemical
# T1 construct: the drugs were pre-incubated with control rat brain homogenate prior to conducting the assay; from tissue; host or cells: rat (male Sprague-Dawley) whole brain homogenate
# T1 sequence (P19643 1-520): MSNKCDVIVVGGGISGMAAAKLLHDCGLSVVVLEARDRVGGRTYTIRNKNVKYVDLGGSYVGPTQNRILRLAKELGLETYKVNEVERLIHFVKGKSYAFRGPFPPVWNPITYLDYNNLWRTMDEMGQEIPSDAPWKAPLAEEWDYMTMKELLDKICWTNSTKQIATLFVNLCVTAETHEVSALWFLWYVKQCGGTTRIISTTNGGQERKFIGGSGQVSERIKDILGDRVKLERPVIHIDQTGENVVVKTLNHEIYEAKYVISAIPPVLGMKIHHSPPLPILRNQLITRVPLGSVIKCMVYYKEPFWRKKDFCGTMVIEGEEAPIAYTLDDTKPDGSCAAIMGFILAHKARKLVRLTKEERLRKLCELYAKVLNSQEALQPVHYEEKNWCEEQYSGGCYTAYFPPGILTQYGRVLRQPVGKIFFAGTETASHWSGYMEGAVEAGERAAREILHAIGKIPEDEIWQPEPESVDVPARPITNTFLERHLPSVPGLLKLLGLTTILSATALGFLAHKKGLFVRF
# Method: (§1) Monoamine oxidase activity was determined using a modified protocol described by Lyles and Callingham.^51 In the in vitro studies, the drugs were pre-incubated with control rat brain homogenate prior to conducting the assay. Briefly, tissue homogenate was diluted in KH2PO4 (0.2M), and an aliquot (50 μl) was incubated with the appropriate radiolabelled substrates (^14C-labelled 5-hydroxytryptamine and β-phenylethylamine were used as substrates for MAO-A and -B respectively). The reaction products were extracted by a mixture of ethyl acetate and toluene (1:1 v/v), and a portion of the top layer was added to a vial containing scintillation fluid for radioactivity measurement. Radioactivity (dpm) was counted using a Beckman LS 7500 liquid scintillation spectrometer.
# MAO-A [2] = target: T2, MAO-A (Rattus norvegicus, UniProt P21396); assay: MAO-A inhibition in vitro in control rat brain homogenate (14C-5-hydroxytryptamine substrate); format: biochemical
# T2 construct: from tissue; host or cells: rat (male Sprague-Dawley) whole brain homogenate
# T2 sequence (P21396 1-526): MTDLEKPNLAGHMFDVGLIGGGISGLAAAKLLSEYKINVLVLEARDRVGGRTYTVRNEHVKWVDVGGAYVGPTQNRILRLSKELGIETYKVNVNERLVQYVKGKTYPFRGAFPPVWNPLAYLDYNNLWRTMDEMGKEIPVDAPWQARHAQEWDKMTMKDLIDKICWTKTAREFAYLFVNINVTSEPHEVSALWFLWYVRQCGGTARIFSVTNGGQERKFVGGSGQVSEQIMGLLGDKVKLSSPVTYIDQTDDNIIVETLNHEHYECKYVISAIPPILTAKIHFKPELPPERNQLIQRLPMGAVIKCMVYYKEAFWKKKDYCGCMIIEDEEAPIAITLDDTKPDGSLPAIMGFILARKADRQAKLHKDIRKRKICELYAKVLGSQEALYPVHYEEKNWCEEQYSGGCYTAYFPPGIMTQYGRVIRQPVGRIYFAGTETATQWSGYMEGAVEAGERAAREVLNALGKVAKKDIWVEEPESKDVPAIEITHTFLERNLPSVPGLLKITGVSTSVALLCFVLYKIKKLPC
# Method: as §1
# MAO-A [3] = target: T2, MAO-A; assay: MAO-A activity ex vivo in brain tissue of drug-treated rats; settings: for MAO-A activity ex vivo / MAO-A inhibition ex vivo: 8p 38.5 mg/kg i.p.; for effect on MAO-A activity ex vivo: time points tested 3, 6, 12 hours, i.p., equimolar doses (PEH 30 mg/kg, 7p 47 mg/kg, 8p 38.5 mg/kg)
# Method: (§2) Male Sprague-Dawley rats (approximately 300 g) were pair-housed in polycarbonate cages with free access to food (Purina Rat Chow) and water, and were maintained on a 12-hour light-dark cycle (lights on at 0800). All animal procedures were approved by the University of Alberta Biosciences Animal Policy and Welfare Committee, and were carried out in accordance with the guidelines of the Canadian Council on Animal Care.
# (§3) In the ex vivo studies, animals were injected intraperitoneally with equimolar amounts of PEH (30 mg/kg), 7p (47 mg/kg) or 8p (38.5 mg/kg) or vehicle (corn oil) and were killed by decapitation 3, 6 or 12 hours following drug administration. Brains were rapidly removed and flash-frozen in 2-methylbutane on solid carbon dioxide, and were stored at −80° C. Subsequently, partially-thawed brains were homogenized in 5 volumes of ice-cold distilled water, and stored in aliquots at -80° C. for use in subsequent analyses (GABA-T, MAO-A, MAO-B, and brain levels of amino acids) after addition to the appropriate buffer medium.
# as §1
# MAO-B [4] = target: T1, MAO-B; assay: MAO-B activity ex vivo in brain tissue of drug-treated rats; settings: i.p.; for MAO-B activity ex vivo: 7p 47 mg/kg, 8p 38.5 mg/kg; for effect on MAO-B activity ex vivo: time points tested 3, 6, 12 hours, equimolar doses (PEH 30 mg/kg, 7p 47 mg/kg, 8p 38.5 mg/kg)
# Method: as §2, §3, §1
# [5] = tested on: brain levels of amino acids (GABA, glutamate, alanine and glycine); format: in vivo; settings: rat whole brain; for effect on brain GABA levels / effect on brain alanine levels / effect on brain glutamate levels / effect on brain glycine levels: 3, 6, 12 hours, i.p., equimolar doses (PEH 30 mg/kg, 7p 47 mg/kg, 8p 38.5 mg/kg)
# Method: as §2, §3
# Amino acid levels (GABA, glutamate, alanine and glycine) were determined using a modified procedure previously described by Grant and colleagues^52 for the quantification of amino acids using HPLC combined with fluorescence detection, following derivatization with fluoraldehyde reagent [o-phthaldialdehyde (OPA)] and isobutyryl-L-cysteine (IBLC). Briefly, a portion of the homogenate (100 μl) was added to ice-cold methanol (400 μl), re-homogenized and centrifuged (13,000 g, 4° C.). The supernatants were further diluted by a factor of 2 in ice-cold water, and transferred to HPLC vials. A portion of the supernatant (5 μl) was reacted with OPA/IBLC (5 μl) in the injection loop of a Waters Alliance 2690XE system for 1.5 minutes before injection onto the analytical column (Symmetry C18 5 μm (4.6×150 mm)), connected to a Symmetry C18 guard column, held at 30° C. A Waters 474 fluorescence detector was set to an excitation wavelength of 344 nm and an emission wavelength of 443 nm. Data were collected and analyzed using the Empower Pro software package (Waters).
# GABA-T [6] = target: T3, GABA-T (Rattus norvegicus, UniProt P50554); assay: GABA-T activity ex vivo in brain homogenates of drug-treated rats (radiochemical); settings: i.p., equimolar doses (PEH 30 mg/kg, 7p 47 mg/kg, 8p 38.5 mg/kg)
# T3 construct: Brain homogenate from control rats was pre-incubated with the drug of interest; from tissue; host or cells: rat (male Sprague-Dawley) whole brain homogenate
# T3 sequence (P50554 28-500): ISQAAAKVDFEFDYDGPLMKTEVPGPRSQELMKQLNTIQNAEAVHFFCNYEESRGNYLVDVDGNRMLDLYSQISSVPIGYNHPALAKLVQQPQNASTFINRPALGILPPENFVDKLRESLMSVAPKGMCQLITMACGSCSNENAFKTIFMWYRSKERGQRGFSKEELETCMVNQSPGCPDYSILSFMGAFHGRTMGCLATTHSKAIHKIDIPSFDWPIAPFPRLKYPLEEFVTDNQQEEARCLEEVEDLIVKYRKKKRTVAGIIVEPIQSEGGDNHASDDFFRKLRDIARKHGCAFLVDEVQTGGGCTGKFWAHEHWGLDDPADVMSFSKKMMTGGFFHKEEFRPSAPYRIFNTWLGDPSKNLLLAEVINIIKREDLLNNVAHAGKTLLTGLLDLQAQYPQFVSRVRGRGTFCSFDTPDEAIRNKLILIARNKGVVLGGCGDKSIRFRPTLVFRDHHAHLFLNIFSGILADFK
# Method: as §2, §3
# (§4) A modification of the colorimetric method of Sethi^49 was used in the initial in vitro screen. Brain homogenate from control rats was pre-incubated with the drug of interest and an incubation buffer before conducting the assay. In the ex vivo study of homogenates from brains of rats treated with the analogs, GABA-T activity was measured using the radiochemical procedure of Sterri and Fonnum.^20 Briefly, homogenates were incubated with radiolabelled GABA in a buffer containing pyridoxal phosphate and the resultant products were isolated using a liquid anion exchanger (tri-n-octylamine). Radioactivity (dpm) was counted using a Beckman LS 7500 liquid scintillation spectrometer.
# GABA-T [7] = target: T3, GABA-T; assay: GABA-T inhibition in vitro, colorimetric screen in control rat brain homogenate; format: biochemical
# Method: as §4
# [8] = rat brain homogenate, mean±SEM, n=4
# [9] = 3 hours following drug administration
# [10] = 6 hours following drug administration
# [11] = 6 hours following drug injection
# [12] = 12 hours following drug injection
# [13] = 3 hours following injection, PEH 30 mg/kg i.p.
structure (smiles),measurement,setting,value
"NNCCc1ccccc1 [PLZ, phenelzine, reference compound]",inhibition of MAO-B in vitro,MAO-B [1]; [8],greater than 95%
same,inhibition of MAO-A in vitro,MAO-A [2]; [8],greater than 95%
"C#CCNN=CCc1ccccc1 [8p, (E)- and (Z)-N-(2-Propynyl)-2-(phenyl)ethylidene]hydrazines]",MAO-A activity ex vivo,MAO-A [3]; [9],78 % of control
same,MAO-A inhibition ex vivo,MAO-A [3]; [9],22%
same,MAO-A activity ex vivo,MAO-A [3]; [10],70 % of control
same,MAO-A inhibition ex vivo,MAO-A [3]; [10],30%
same,effect on MAO-A activity ex vivo,MAO-A [3],"weak, transient effect on MAO-A"
same,MAO-B activity ex vivo,MAO-B [4]; [11],24 % of control
same,MAO-B activity ex vivo,MAO-B [4]; [12],29 % of control
same,effect on MAO-B activity ex vivo,MAO-B [4],significantly reducing MAO-B activity at all time points tested
same,inhibition of MAO-B in vitro,MAO-B [1]; concentration of 10 μM,neither 7p nor 8p caused any inhibition of MAO-A or -B
same,effect on brain GABA levels,[5],"did not significantly alter the levels of GABA, alanine or glutamate at any time point tested"
same,effect on brain alanine levels,[5],"did not significantly alter the levels of GABA, alanine or glutamate at any time point tested"
same,effect on brain glutamate levels,[5],"did not significantly alter the levels of GABA, alanine or glutamate at any time point tested"
same,effect on brain glycine levels,[5],significantly increased glycine at 3 and 6 hours post-injection
same,brain glycine level,"[5]; 6 hours post-injection, 8p 38.5 mg/kg i.p.",216 % of control
same,GABA-T activity ex vivo,GABA-T [6]; 3 hours post-injection,76 % of control
same,GABA-T activity ex vivo,GABA-T [6]; 6 hours post-injection,77 % of control
same,GABA-T activity ex vivo,GABA-T [6]; 12 hours post-injection,not significantly different from control values
same,inhibition of MAO-A in vitro,MAO-A [2]; concentration of 10 μM,neither 7p nor 8p caused any inhibition of MAO-A or -B
"NN=CCc1ccccc1 [PEH, β-Phenylethylidenehydrazine]",effect on MAO-A activity ex vivo,MAO-A [3],did not alter the activity of either MAO-A or -B
same,inhibition at 10 µM,GABA-T [7],~50%
same,effect on MAO-B activity ex vivo,MAO-B [4],did not alter the activity of either MAO-A or -B
same,inhibition of MAO-B in vitro,MAO-B [1]; [8],14.9±6.6%
same,effect on brain GABA levels,[5],increased brain GABA and alanine levels
same,effect on brain alanine levels,[5],increased brain GABA and alanine levels
same,effect on brain glutamate levels,[5],did not significantly alter brain glutamate or glycine levels
same,effect on brain glycine levels,[5],did not significantly alter brain glutamate or glycine levels
same,brain GABA level,[5]; [13],418 % of control
same,brain alanine level,[5]; [13],489 % of control
same,GABA-T activity ex vivo,GABA-T [6]; 3 hours post-injection,66 % of control
same,GABA-T activity ex vivo,GABA-T [6]; 6 hours post-injection,66 % of control
same,GABA-T activity ex vivo,GABA-T [6]; 12 hours post-injection,70 % of control
same,inhibition of MAO-A in vitro,MAO-A [2]; [8],26.7±3.1%
C#CCN(CC#C)/N=C/Cc1ccccc1 [7p],effect on MAO-A activity ex vivo,MAO-A [3],did not significantly alter MAO-A activity at any time point tested
same,MAO-B activity ex vivo,MAO-B [4]; [11],58 % of control
same,MAO-B activity ex vivo,MAO-B [4]; [12],25 % of control
same,effect on MAO-B activity ex vivo,MAO-B [4],significantly reducing MAO-B activity at all time points tested
same,inhibition of MAO-B in vitro,MAO-B [1]; concentration of 10 μM,neither 7p nor 8p caused any inhibition of MAO-A or -B
same,effect on brain GABA levels,[5],"did not significantly alter the levels of GABA, alanine or glutamate at any time point tested"
same,effect on brain alanine levels,[5],"did not significantly alter the levels of GABA, alanine or glutamate at any time point tested"
same,effect on brain glutamate levels,[5],"did not significantly alter the levels of GABA, alanine or glutamate at any time point tested"
same,effect on brain glycine levels,[5],"increased glycine at 3, 6 and 12 hours post-injection"
same,brain glycine level,"[5]; 12 hours post-injection, 7p 47 mg/kg i.p.",248 % of control
same,GABA-T activity ex vivo,GABA-T [6]; 3 hours post-injection,86 % of control
same,GABA-T activity ex vivo,GABA-T [6]; 6 hours post-injection,86 % of control
same,GABA-T activity ex vivo,GABA-T [6]; 12 hours post-injection,not significantly different from control values
same,inhibition of MAO-A in vitro,MAO-A [2]; concentration of 10 μM,neither 7p nor 8p caused any inhibition of MAO-A or -B
